SMILES strings stand for the structures. Like-named read-outs stand apart in the source and are kept apart here.

This passage reports melting point and IC50 results from patent publication US20080114047A1 (priority 2003, published 2008).

The subject of data set [1] is L. donovani axenic amastigotes. The data set is described as follows: In vitro anti-leishmania activity (IC50 vs. L. donovani axenic amastigotes). In kind it is cell-based. As to conditions: Leishmania donovani.
Data set [2] relates to Trypanosoma brucei rhodesiense. The data set is described as follows: Anti-protozoan data: T.b.r. IC50. The format is cell-based. Particulars: read-out: T.b.r. IC50.
For a further data set, the system named is Plasmodium falciparum. Put plainly: Anti-protozoan data: P. falcip. IC50. In kind it is cell-based. As to conditions: read-out: P. falcip. IC50.
The mark [3] stands for this setting: Tables VI(a), VI(c), read-out: Leishmania donovani IC50.
The mark [4] stands for this setting: axenic amastigotes, Tables I-V, read-out: IC50 vs. L. donovani.

What is called melting point is the temperature, or range, at which the solid turns liquid. On to `Cl.Cl.c1cc2cc(CCCc3cc4ccc(C5=NCCN5)cc4o3)oc2cc1C1=NCCN1` [Compound 19, 4,5-Dihydro-2-(2-(3-(6-(4,5-dihydro-1H-imidazol-2-yl)benzofuran-2-yl)propyl)benzofuran-6-yl)-1H-imidazole dihydrochloride], for which the melting point was > 300 °C (dec.).
The same measure, in the same setting: for `Cl.Cl.N=C(N)c1ccc2oc(CCCCc3cc4cc(C(=N)N)ccc4o3)cc2c1` [Compound 20, 2-(4-(5-Amidinobenzofuran-2-yl)butyl)benzofuran-5-carboxamidine dihydrochloride] the value was 325 to 327 °C (dec.); for `Cl.Cl.c1cc2oc(CCCCc3cc4cc(C5=NCCN5)ccc4o3)cc2cc1C1=NCCN1` [Compound 22, 4,5-Dihydro-2-(2-(4-(5-(4,5-dihydro-1H-imidazol-2-yl)benzofuran-2-yl)butyl)benzofuran-5-yl)-1H-imidazole dihydrochloride], 323 to 324 °C (dec.); for `Cl.Cl.N=C(N)c1ccc2cc(CCCCc3cc4ccc(C(=N)N)cc4o3)oc2c1` [Compound 23, 2-(4-(6-Amidinobenzofuran-2-yl)butyl)benzofuran-6-carboxamidine dihydrochloride], 328 to 330 °C (dec.).
On the same count and under the same terms, as for `Cl.Cl.c1cc2cc(CCCCc3cc4ccc(C5=NCCN5)cc4o3)oc2cc1C1=NCCN1` [Compound 25, 4,5-Dihydro-2-(2-(4-(6-(4,5-dihydro-1H-imidazol-2-yl)benzofuran-2-yl)butyl)benzofuran-6-yl)-1H-imidazole dihydrochloride], the figure is 343 to 345 °C (dec.); as for `Cl.Cl.c1cc2oc(CCCCCc3cc4cc(C5=NCCN5)ccc4o3)cc2cc1C1=NCCN1` [Compound 28, 4,5-Dihydro-2-(2-(5-(5-(4,5-dihydro-1H-imidazol-2-yl)benzofuran-2-yl)pentyl)benzofuran-5-yl)-1H-imidazole dihydrochloride], 155 to 157 °C.
Still for that read-out and setting: as for `Cl.Cl.N=C(N)c1ccc2cc(CCCCCc3cc4ccc(C(=N)N)cc4o3)oc2c1` [Compound 29, 2-(5-(6-Amidinobenzofuran-2-yl)pentyl)benzofuran-6-carboxamidine dihydrochloride], the figure is 243 to 245 °C (dec.); as for `Cl.Cl.c1cc2cc(CCCCCc3cc4ccc(C5=NCCN5)cc4o3)oc2cc1C1=NCCN1` [Compound 31, 4,5-Dihydro-2-(2-(5-(6-(4,5-dihydro-1H-imidazol-2-yl)benzofuran-2-yl)pentyl)benzofuran-6-yl)-1H-imidazole dihydrochloride], 308 to 310 °C (dec.).
One may read the IC50 as the concentration that gives 50% inhibition. `CC(C)NC(=N)c1ccc(OCCCCOc2cccc(-c3cc4cc(C(=N)NC(C)C)ccc4o3)c2)cc1.Cl.Cl` [Compound 36, 2-(3-(4-(4-(N-Isopropylcarbamimidoyl)phenoxy)butoxy)phenyl)-N-isopropylbenzofuran-5-carboxamidine dihydrochloride] showed a melting point of 207 to 210 °C. Moreover, in data set [1] (setting [3]), the IC50 was determined as 11200 ± 40 nM. Besides, the IC50 in data set [1] (setting [4]) was determined as 11200 ± 40 nM. For the same compound, in “in vitro”, the IC50 worked out at 36500 nM. Besides, the IC50 in data set [2] (Tables VI(a), VI(c)) came to 537 nM. Besides, in the data set on Plasmodium falciparum (Tables VI(a), VI(c)), the IC50 amounted to 269 nM.
`Cl.Cl.c1cc(OCCCCOc2ccc(C3=NCCN3)cc2)cc(-c2cc3cc(C4=NCCN4)ccc3o2)c1` [Compound 37, 2-(2-(3-(4-(4-(4,5-Dihydro-1H-imidazol-2-yl)phenoxy)butoxy)phenyl)benzofuran-5-yl)-4,5-dihydro-1H-imidazole dihydrochloride]: the melting point lay within 190 to 195 °C. In addition, the IC50 in data set [1] (setting [3]) came out at 11700 ± 140 nM. Besides, the IC50 in data set [1] (setting [4]) was 11700 ± 140 nM. For the same compound, in the data set “in vitro”, half-maximal inhibition (IC50) was put at 9520 nM. Also, the IC50 in data set [2] (Tables VI(a), VI(c)) was found to be 1170 nM. The IC50 in the data set on Plasmodium falciparum (Tables VI(a), VI(c)) amounted to 98.6 nM.
`Cl.Cl.N=C(N)c1ccc(OCCCCCCOc2cccc(-c3cc4cc(C(=N)N)ccc4o3)c2)cc1` [Compound 41, 2-(3-(6-(4-Carbamimidoylphenoxy)hexyloxy)phenyl)benzofuran-5-carboxamidine dihydrochloride] registered a melting point of 208 to 210 °C. Also, in data set [1] (setting [3]), the IC50 was 22600 ± 230 nM. For the same compound, the IC50 in data set [1] (setting [4]) came out at 22600 ± 230 nM. Further, the IC50 in “in vitro” is 3120 nM. In addition, the IC50 in data set [2] (Tables VI(a), VI(c)) came to 1610 nM. Further, the IC50 in the data set with Plasmodium falciparum (Tables VI(a), VI(c)) was 430 nM.
Turning to `c1cc(OCCCCCCOc2ccc(C3=NCCN3)cc2)cc(-c2cc3cc(C4=NCCN4)ccc3o2)c1` [Compound 43, 2-(2-(3-(6-(4-(4,5-Dihydro-1H-imidazol-2-yl)phenoxy)hexyloxy)phenyl)benzofuran-5-yl)-4,5-dihydro-1H-imidazole], the half-maximal inhibitory concentration (IC50) in data set [1] (setting [3]) is 1920 ± 190 nM; in the data set “in vitro”, 2460 nM; in data set [2] (Tables VI(a), VI(c)), 996 nM; in the data set on Plasmodium falciparum (Tables VI(a), VI(c)), 49.4 nM.
`Cl.Cl.N=C(N)c1ccc(OCCCCCCOc2ccc(-c3cc4ccc(C(=N)N)cc4o3)cc2)cc1` [Compound 77, 2-(4-(6-(4-Carbamimidoylphenoxy)hexyloxy)phenyl)benzofuran-6-carboxamidine dihydrochloride] gave a melting point of 310 to 311 °C. This compound also displayed an IC50 in the data set “in vitro” of 8020 nM. In data set [2] (Tables VI(a), VI(c)), the IC50 was 416 nM. For the same compound, the IC50 in the data set with Plasmodium falciparum (Tables VI(a), VI(c)) was determined as 280 nM.
Take `N=C(N)c1cccc(-c2cc3ccc(C(=N)N)cc3o2)c1` [Compound 169, 2-(3-carbamimidoylphenyl)benzofuran-6-carboxamidine]: the IC50 in data set [1] (setting [4]) was 14400 nM; in data set [1] (read-out: L. Donovani IC50), 14400 nM; in “in vitro”, 131000 nM; in data set [2] it was 21 nM; in the data set on Plasmodium falciparum, 3.5 nM.
For the compound `CC(C)NC(=N)c1cccc(-c2cc3ccc(C(=N)NC(C)C)cc3o2)c1` [Compound 170, 2-(3-(N-isopropylcarbamimidoyl)phenyl)-N-isopropylbenzofuran-6-carboxamidine], the IC50 in data set [1] (setting [4]) is 24400 ± 100 nM; in data set [1] (read-out: L. Donovani IC50), 24400 ± 100 nM; in “in vitro” it was over 200000 nM; in data set [2], 534 nM; in the data set with Plasmodium falciparum it was 58.6 nM.
Take `c1cc(C2=NCCN2)cc(-c2cc3ccc(C4=NCCN4)cc3o2)c1` [Compound 171, 2-(3-(6-(4,5-dihydro-1H-imidazol-2-yl)benzofuran-2-yl)phenyl)-4,5-dihydro-1H-imidazole]: the IC50 in data set [1] (setting [4]) is over 100000 nM; in data set [1] (read-out: L. Donovani IC50) it was over 100000 nM; in “in vitro” it was 12800 nM; in data set [2], 332 nM; in the data set with Plasmodium falciparum it was 205 nM.
With `N=C(N)c1ccc(-c2cc3ccc(C(=N)N)cc3o2)cc1` [Compound 172, 2-(4-carbamimidoylphenyl)benzofuran-6-carboxamidine], the IC50 in data set [1] (setting [4]) worked out at 3130 ± 150 nM; in data set [1] (read-out: L. Donovani IC50), 3130 ± 150 nM; in the data set “in vitro”, 830 nM; in data set [2], 6.9 nM; in the data set on Plasmodium falciparum, 3.1 nM.
`CC(C)NC(=N)c1ccc(-c2cc3ccc(C(=N)NC(C)C)cc3o2)cc1` [Compound 173, 2-(4-(N-isopropylcarbamimidoyl)phenyl)-N-isopropylbenzofuran-6-carboxamidine]: the IC50 in data set [1] (setting [4]) is 11800 ± 1280 nM; in data set [1] (read-out: L. Donovani IC50) it was 11800 ± 1280 nM; in “in vitro” it was over 199000 nM; in data set [2] it was 148 nM; in the data set with Plasmodium falciparum, 14.5 nM.
On to `c1cc(-c2cc3ccc(C4=NCCN4)cc3o2)ccc1C1=NCCN1` [Compound 174, 2-(4-(6-(4,5-dihydro-1H-imidazol-2-yl)benzofuran-2-yl)phenyl)-4,5-dihydro-1H-imidazole], for which the IC50 in data set [1] (setting [4]) is over 50000 nM; in data set [1] (read-out: L. Donovani IC50) it was over 50000 nM; in “in vitro”, 4520 nM; in data set [2], 319 nM; in the data set on Plasmodium falciparum, 109 nM.
For the compound `COc1cc(C(=N)N)cc2cc(-c3ccc(C(=N)N)cc3)oc12` [Compound 175, 2-(4-carbamimidoylphenyl)-7-methoxybenzofuran-5-carboxamidine], the IC50 in data set [1] (setting [4]) is 3000 ± 560 nM; in data set [1] (read-out: L. Donovani IC50), 3000 ± 560 nM; in “in vitro”, 30700 nM; in data set [2], 6 nM; in the data set on Plasmodium falciparum it was 5.6 nM.
On to `COc1cc(C2=NCCN2)cc2cc(-c3ccc(C4=NCCN4)cc3)oc12` [Compound 177, 2-(4-(5-(4,5-dihydro-1H-imidazol-2-yl)-7-methoxybenzofuran-2-yl)phenyl)-4,5-dihydro-1H-imidazole], for which the IC50 was 4450 ± 360 nM in data set [1] (setting [4]); 4450 ± 360 nM in data set [1] (read-out: L. Donovani IC50); 19900 nM in the data set “in vitro”; 124 nM in data set [2]; 32.3 nM with Plasmodium falciparum.
Consider `N=C(NO)c1cccc(-c2cc3ccc(C(=N)NO)cc3o2)c1` [Compound 180, 2-(3-(N-Hydroxycarbamimidoyl)phenyl)-N-hydroxybenzofuran-6-carboxamidine], for which the IC50 in data set [1] (read-out: L. Donovani IC50) was 68500 ± 6160 nM; in the data set “in vitro”, 13800 nM; in data set [2], 37800 nM; with Plasmodium falciparum, 1850 nM.
In the case of `N=C(NO)c1ccc(-c2cc3ccc(C(=N)NO)cc3o2)cc1` [Compound 181, 2-(4-(N-Hydroxycarbamimidoyl)phenyl)-N-hydroxybenzofuran-6-carboxamidine], the IC50 in data set [1] (read-out: L. Donovani IC50) is over 100000 nM; in the data set “in vitro”, over 222000 nM; in data set [2], 3100 nM; with Plasmodium falciparum, 609 nM.
For `N=C(NO)c1ccc(OCCCCCOc2ccc(-c3cc4cc(C(=N)NO)ccc4o3)cc2)cc1` [Compound 183, 2-(4-(5-(4-(N-Hydroxycarbamimidoyl)phenoxy)pentyloxy)phenyl)-N-hydroxybenzofuran-5-carboxamidine], the IC50 in “in vitro” was 8280 nM; in data set [2] (Tables VI(a), VI(c)), 1560 nM; with Plasmodium falciparum (Tables VI(a), VI(c)), 291 nM.
The matching figures for `N=C(NO)c1ccc2oc(CCc3cc4cc(C(=N)NO)ccc4o3)cc2c1` [Compound 190, 2-(2-(5-(N-Hydroxycarbamimidoyl)benzofuran-2-yl)ethyl)-N-hydroxybenzofuran-5-carboxamidine]: over 199000 nM, 10100 nM and 400 nM.
